From patent US20230219951A1, “PYRIDINE-PYRIMIDINE DERIVATIVE, PREPARATION METHOD THEREFOR AND PHARMACEUTICAL USE THEREOF” (Jiangsu Hengrui Pharmaceuticals Co., Ltd., priority 2020, published 2023)

Assays:
H358 cells = assay: Inhibition of proliferation of H358 cells (CellTiter-Glo 3D); format: cell-based; conditions: Homo sapiens, NCI-H358, low adsorption plate, 120 h
Method: This example is intended to evaluate the inhibition effect of the compounds of the present disclosure on the KRAS target (containing the G12C mutation) by testing the inhibition effect of the compounds of the present disclosure on the proliferation of H358 cells.
H358 cells (ATCC, CRL-5807) were cultured in a complete medium, namely RPMI1640 medium (Hyclone, SH30809.01) containing 10% fetal bovine serum (Corning, 35-076-CV). On the first day of the experiment, the H358 cells were seeded into a 96-well low adsorption plate (Coming, CLS7007-24EA) at a density of 1500 cells/well with a complete medium to form 90 μL of cell suspension per well. The plate was centrifuged at 2000 rpm for 5 min at room temperature and then incubated overnight in a cell incubator at 37° C. with 5% CO2. The next day, 10 μL of test compound diluted in a gradient prepared with the complete medium was added to each well. The final concentrations of the compound were 9 concentration points obtained by 5-fold gradient dilution from 10 μM. A blank control containing 0.1% DMSO was set. The plate was incubated in a cell incubator at 37° C. with 5% CO2 for 120 h. On the seventh day, the 96-well cell culture plate was taken out and 50 μL of CellTiter-Glo® 3D reagent (Promega, G9682) was added into each well. The plate was shaken at room temperature for 25 min, pipetted and mixed well, from which 50 μL of the mixture was transferred into a white impermeable 96-well plate (PE, 6005290). The luminescence signal values were read using a multi-mode microplate reader (PerkinElmer, VICTOR 3).
IC50 values for the inhibitory activity of the compounds were calculated using Graphpad Prism software.

[1] = target: T1, interaction between the KRAS protein subtype G12D and the SOS1 protein (Homo sapiens, UniProt Q07889); assay: Inhibition of the interaction between KRAS G12D and SOS1 protein (AlphaLISA/AlphaScreen); format: binding; conditions: KRAS G12D + GST-TEV-SOS1(564-1049) + GDP
T1 construct: GST-TEV-SOS1(564-1049) (Viva Biotech, SOS1-191010); purchased SOS1: Viva Biotech; KRAS: Shanghai Panchao Biotechnology Co., Ltd. SOS1-191010
T1 sequence (Q07889 564-1049): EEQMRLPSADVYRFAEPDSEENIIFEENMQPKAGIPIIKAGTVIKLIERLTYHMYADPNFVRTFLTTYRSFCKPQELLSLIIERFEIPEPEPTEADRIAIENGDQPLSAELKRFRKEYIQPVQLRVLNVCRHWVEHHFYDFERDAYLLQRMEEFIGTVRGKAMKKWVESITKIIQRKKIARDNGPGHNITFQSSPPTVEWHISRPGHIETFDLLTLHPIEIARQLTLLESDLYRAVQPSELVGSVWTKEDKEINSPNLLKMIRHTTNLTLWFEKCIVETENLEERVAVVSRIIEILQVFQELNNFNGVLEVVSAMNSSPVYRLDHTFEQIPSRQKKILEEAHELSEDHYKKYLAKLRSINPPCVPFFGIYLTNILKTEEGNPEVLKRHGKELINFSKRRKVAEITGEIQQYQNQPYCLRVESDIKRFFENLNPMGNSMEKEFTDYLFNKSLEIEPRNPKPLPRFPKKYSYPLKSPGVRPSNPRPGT
Method: (§1) Test Example 1: Inhibitory Ability of Compounds of the Present Disclosure to the Interaction Between the KRAS Protein Subtype G12D or G12V and the SOS1 Protein. The inhibitory ability of the compounds of the present disclosure to the interaction between the KRAS protein subtype G12D or G12V and the SOS1 protein was determined by the following method. The experimental method was briefly described as follows:
(§2) 1. The experimental buffer was prepared prior to the start of the experiment: 1×PBS+0.1% BSA+0.05% tween 20.
(§3) 2. KRAS G12D and KRAS-G12V proteins were labeled with biotin using the biotin labeling kit.
(§4) 1. Firstly, the biotin-labeled KRAS G12D or KRAS G12V protein was mixed and incubated with the SOS1 protein and GDP for later use.
(§5) 2. AlphaLISA glutathione acceptor beads and AlphaScreen streptavidin donor beads were mixed at a ratio of 1:1 to make the concentration of 40 μg/mL for later use.
(§6) 3. The compound was formulated with the experimental buffer to obtain 10 concentration points by 5-fold gradient dilution from an initial concentration of 40 μM.
(§7) 4. In the 384-well microplate, 10 μL of a mixture of KRAS G12D or KRAS G12V protein and SOS1 and GDP and 5 μL of the diluted compound were added to each well and incubated at room temperature for 30 min away from the light.
(§8) 5. Then, 5 μL of a mixture of AlphaLISA glutathione acceptor beads and AlphaScreen streptavidin donor beads was added to each well and incubated at room temperature for 60 min away from the light.
(§9) 6. The fluorescence values were read on a multi-mode microplate reader.
(§10) 7. IC50 values of the compounds were calculated using Graphpad Prism.

[2] = tested on: ERK phosphorylation of H358 cells; assay: Inhibition of ERK phosphorylation of H358 cells (HTRF pERK/total ERK); format: cell-based; conditions: Homo sapiens, NCI-H358, 1 h incubation, pERK/total ERK ratio
Method: This experiment is intended to evaluate the inhibition effect of the compounds of the present disclosure on the KRAS target (containing the G12C mutation) according to IC50 by determining the inhibition effect of the compounds on ERK phosphorylation of the cells.
H358 cells (ATCC, CRL-5807) were cultured in RPMI1640 (Hyclone, SH30809.01) complete medium containing 10% fetal bovine serum. On the first day of the experiment, the H358 cells were seeded into a 96-well plate at a density of 25,000 cells/well with a complete medium to form 190 μL of cell suspension per well. The plate was incubated overnight in a cell incubator at 37° C. with 5% CO2. The next day, 10 μL of test compound diluted in a gradient prepared with the complete medium was added to each well. The final concentrations of the compound were 9 concentration points obtained by 5-fold gradient dilution from 10 μM. A blank control containing 0.1% DMSO was set. The plate was incubated in a cell incubator at 37° C. with 5% CO2 for 1 h. 1 h later, the 96-well cell culture plate was taken out, the medium was removed by pipetting, 200 μL PBS (Shanghai BasalMedia Technologies Co., Ltd., B320) was added to each well, and the cells were washed once. PBS was removed by pipetting, 50 μL of lysis buffer (Cisbio, 64KL1FDF) containing a blocking reagent (Cisbio, 64KB1AAC) was added to each well, and the plate was shaken on a shaker at room temperature for 40 min for lysis. After lysis, the lysate was pipetted and mixed well, 16 μL of lysate was transferred from each well to each of two HTRF 96-well assay plates (Cisbio, 66PL96100), and then 4 μL of premixed phospho-ERK1/2 antibody solution (Cisbio, 64AERPEG) or 4 μL of premixed total-ERK1/2 antibody solution (Cisbio, 64NRKPEG) was added to each of the two plates. The microplate was sealed with a sealing membrane, centrifuged for 1 min in a microplate centrifuge, and incubated overnight at room temperature away from the light. On the third day, the fluorescence values at an excitation wavelength of 337 nm and at emission wavelengths of 665 nm and 620 nm were read using a PHERAstar multi-mode microplate reader (BMG Labtech, S/N 471-0361).
IC50 values for inhibitory activity of the compounds were calculated using Graphpad Prism software based on compound concentrations and pERK/total ERK ratio.

[3] = target: T2, interaction between the KRAS protein subtype G12V and the SOS1 protein (Homo sapiens, UniProt Q07889); assay: Inhibition of the interaction between KRAS G12V and SOS1 protein (AlphaLISA/AlphaScreen); format: binding; conditions: KRAS G12V + GST-TEV-SOS1(564-1049) + GDP
T2 construct: GST-TEV-SOS1(564-1049) (Viva Biotech, SOS1-191010); purchased SOS1: Viva Biotech; KRAS: Shanghai Panchao Biotechnology Co., Ltd. SOS1-191010
T2 sequence (Q07889 564-1049): T1 sequence (Q07889 564-1049)
Method: as §1, §2, §3, §4, §5, §6, §7, §8, §9, §10

IC50 (H358 cells): 716 nM | IC50 [1]: 175 nM | IC50 [3]: 187 nM
SMILES: Cc1nc(N[C@H](C)c2cccc(C(F)F)c2F)c2cc([C@]3(O)CC[C@H](O)CC3)c(=O)n(C)c2n1 [Example 28-p2, 4-(((R)-1-(3-(difluoromethyl)-2-fluorophenyl)ethyl)amino)-6-((1r,4R)-1,4-dihydroxycyclohexyl)-2,8-dimethylpyrido[2,3-d]pyrimidin-7(8H)-one]
IC50 [2]: 937 nM
